The IC50 is the concentration at which inhibition is half-maximal.

The source of these data is patent publication US20230365582A1, “NOVEL COMPOUNDS HAVING INHIBITORY ACTIVITY ON PROSTAGLANDIN E2 RECEPTOR AND USES THEREOF” (KANAPH THERAPEUTICS INC., priority 2020, published 2023).

The target of experiment [1] is T1, hEP2 (Homo sapiens, UniProt P43116).
T1 construct: expressed in transfected cells; host or cells: HEK293
Briefly: hEP2 cAMP assay. The experiment is classed as cell-based. Conditions: HEK293 cells overexpressing hEP2; PGE2 agonist 400 pM; graded per Table 21; read-out: IC50 (nM) EP2 cAMP. On the procedure: HEK293 cells overexpressing hEP2 were cultured in growth medium (GM: MEM (Gibco™, 11095080)/10% HI FBS (Gibco™, 10082147)/1% penicillin/streptomycin). Before the experiment, the growth medium was removed, and starvation medium (HBSS (Gibco™, 14025076)/10% GM) was added. Thereafter, the cells were incubated for 4 hours. The HEK293 cells harboring hEP2 were detached from the culture dish with a non-enzymatic cell dissociation buffer (Gibco™, 15040066). The cells were resuspended in assay buffer (AB: HBSS, 0.1% BSA stabilizer, 0.5 mM IBMX, 5 mM HEPES).
(§1) 1,000 cells in 5 μL of AB were seeded per well in a 384 well plate (Corning™, 3570), and stock solutions of test compounds were prepared at a concentration of 1 mM in DMSO and serially diluted in DMSO to the concentration required for the inhibition dose response curve (test concentration range of 10 μM-0.001 nM). PGE2 (Sigma, P0409, stock solution: 1 μM) was used as an agonist at a final concentration of 400 pM corresponding to EC50-80. 2.5 μL of the diluted compound and 2.5 μL of PGE2 (400 pM final concentration) were transferred to the assay plate, and then the plate was incubated at room temperature for 12 minutes.
(§2) 5 μL of each donor (Eu-cAMP tracer) and acceptor (ULight-anti-cAMP) was added, and the plate was incubated in the dark for 1 hour at room temperature, and then a Varioskan LUX multimode microplate reader was used to obtain the results (excitation: 334 nm, emission: 615 and 665 nm). The resulting FRET fluorescence value (665 nm/615 nm*10000) was converted and then calculated as a percentage of cAMP relative to the DMSO control value. IC50 values and curves were generated with GraphPad Prism software using log (inhibitor) versus response-variable slopes (4 parameters), and the median of multiple experiments was taken as the experiment result.
For orientation: Cyclic AMP is a second messenger, typically raised through Gs and lowered through Gi signalling.

For experiment [2], the target named is T2, hEP4 (Homo sapiens, UniProt P35408).
T2 construct: expressed in transfected cells; host or cells: HEK293
T2 sequence (P35408 whole entry): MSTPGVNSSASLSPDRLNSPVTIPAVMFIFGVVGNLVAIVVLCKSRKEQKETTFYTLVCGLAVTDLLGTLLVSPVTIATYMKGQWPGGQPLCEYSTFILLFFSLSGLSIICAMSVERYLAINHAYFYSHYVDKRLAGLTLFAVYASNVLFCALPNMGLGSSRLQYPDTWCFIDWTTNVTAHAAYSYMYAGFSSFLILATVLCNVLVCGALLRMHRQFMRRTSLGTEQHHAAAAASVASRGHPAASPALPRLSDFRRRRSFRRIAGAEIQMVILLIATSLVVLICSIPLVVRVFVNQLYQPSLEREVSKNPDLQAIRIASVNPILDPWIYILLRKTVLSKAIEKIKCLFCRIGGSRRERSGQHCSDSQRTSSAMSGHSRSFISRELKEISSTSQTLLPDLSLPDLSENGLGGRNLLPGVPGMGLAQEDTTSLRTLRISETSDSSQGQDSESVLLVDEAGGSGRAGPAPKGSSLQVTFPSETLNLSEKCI
In words: hEP4 cAMP assay. The experiment is classed as cell-based. The note with it: HEK293 cells overexpressing hEP4; PGE2 agonist 20 nM; graded per Table 21; read-out: IC50 (nM) EP4 cAMP. Here is the method: HEK293 cells overexpressing hEP4 were cultured in growth medium (GM: MEM (Gibco™, 11095080)/10% HI FBS (Gibco™, 10082147)/1% penicillin/streptomycin). Before the experiment, the growth medium was removed, and starvation medium (HBSS (Gibco™ 14025076)/10% GM) was added. Thereafter, the cells were incubated for 4 hours. HEK293 cells harboring hEP4 were detached from the culture dish with a non-enzymatic cell dissociation buffer (Gibco™, 15040066). The cells were resuspended in assay buffer (AB: HBSS, 0.1% BSA stabilizer, 0.5 mM IBMX, 5 mM HEPES).
as §1, with “plate (Corning®,” for “plate (Corning™,”, “solution: 100” for “solution: 1”, “of 20 nM” for “of 400 pM”, “PGE2 (20 nM” for “PGE2 (400 pM”, “for 18.5” for “for 12”
as §2, with “compared” for “relative”, “slope” for “slopes”

Bounds are passed on as bounds.

T1 sequence (P43116 whole entry): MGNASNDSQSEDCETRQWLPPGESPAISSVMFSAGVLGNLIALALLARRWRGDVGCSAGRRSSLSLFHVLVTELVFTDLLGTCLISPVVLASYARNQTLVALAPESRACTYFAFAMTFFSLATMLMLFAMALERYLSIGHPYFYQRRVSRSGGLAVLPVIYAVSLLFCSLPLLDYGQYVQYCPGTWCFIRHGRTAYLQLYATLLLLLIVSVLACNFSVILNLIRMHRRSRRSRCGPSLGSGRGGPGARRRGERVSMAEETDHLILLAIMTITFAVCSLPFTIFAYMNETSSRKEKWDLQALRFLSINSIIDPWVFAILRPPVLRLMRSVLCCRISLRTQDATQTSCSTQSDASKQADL

In the case of `Cc1sc(C)c(C(=O)N[C@H]2CC3(C2)C[C@H](C(=O)O)C3)c1Cc1ccc(-c2ccccc2)cc1` (single isomer, unassigned) [Example 1a], the 50% inhibitory concentration (IC50) in experiment [1] and in experiment [2] was greater than 10000 nM in each case. Take `Cc1sc(C)c(C(=O)N[C@H]2CC3(C2)C[C@H](C(=O)O)C3)c1Cc1ccc(-c2ccccc2)cc1` (single isomer, unassigned) [Example 1b]: the 50% inhibitory concentration (IC50) was 500 to 5000 nM in experiment [1] and less than 500 nM in experiment [2]. For `COc1cc(F)cc(-c2ccc(Cc3c(C)sc(C)c3C(=O)N[C@H]3CC4(C3)C[C@H](C(=O)O)C4)cc2)c1` (single isomer, unassigned) [Example 34a] the same measures were 5000 to 10000 nM and 500 to 5000 nM. As to `COc1cc(F)cc(-c2ccc(Cc3c(C)sc(C)c3C(=O)N[C@H]3CC4(C3)C[C@H](C(=O)O)C4)cc2)c1` (single isomer, unassigned) [Example 34b], the IC50 in experiment [1] and in experiment [2] was less than 500 nM throughout.

On to `O=C(N[C@H]1CC2(C1)C[C@H](C(=O)O)C2)c1csc2ccn(Cc3ccc(-c4ccccc4)cc3)c12` (single isomer, unassigned) [Example 79a], for which the IC50 in experiment [1] and in experiment [2] was 500 to 5000 nM throughout. Turning to `O=C(N[C@H]1CC2(C1)C[C@H](C(=O)O)C2)c1csc2ccn(Cc3ccc(-c4ccccc4)cc3)c12` (single isomer, unassigned) [Example 79b], the IC50 in experiment [1] and in experiment [2] was less than 500 nM in each case. As for `Cc1sc2ccn(Cc3ccc(-c4ccccc4)cc3)c2c1C(=O)N[C@H]1CC2(C1)C[C@H](C(=O)O)C2` (single isomer, unassigned) [Example 80a], the figures for the concentration for half-maximal inhibition (IC50) in experiment [1] and in experiment [2] were 500 to 5000 nM and greater than 10000 nM, respectively. `Cc1sc2ccn(Cc3ccc(-c4ccccc4)cc3)c2c1C(=O)N[C@H]1CC2(C1)C[C@H](C(=O)O)C2` (single isomer, unassigned) [Example 80b]: the IC50 in experiment [2] was less than 500 nM.

`Cc1sc(C)c(C(=O)NC2CC3(C2)CC(C(=O)O)C3)c1Cc1ccc(-c2ccccc2)cc1` (stereo not drawn) [Example 1, 6-(4-([1,1′-biphenyl]-4-ylmethyl)-2,5-dimethylthiophene-3-carboxamido)spiro[3.3]heptane-2-carboxylic acid]: the IC50 in experiment [1] was 500 to 5000 nM; in experiment [2] it was less than 500 nM.

Regarding `Cc1ccc(Cc2c(C)sc(C)c2C(=O)NC2CC3(C2)CC(C(=O)O)C3)cc1` (stereo not drawn) [Example 2, 6-(2,5-dimethyl-4-(4-methylbenzyl)thiophene-3-carboxamido)spiro[3.3]heptane-2-carboxylic acid], the IC50 in experiment [1] and in experiment [2] was greater than 10000 nM throughout. On to `Cc1sc(C)c(C(=O)NC2CC3(C2)CC(C(=O)O)C3)c1Cc1cccc(-c2ccccc2)c1` (stereo not drawn) [Example 3, 6-(4-([1,1′-biphenyl]-3-ylmethyl)-2,5-dimethylthiophene-3-carboxamido)spiro[3.3]heptane-2-carboxylic acid], for which the 50% inhibitory concentration (IC50) in experiment [1] was greater than 10000 nM; in experiment [2] it was 5000 to 10000 nM. For `Cc1sc(C)c(C(=O)NC2CC3(C2)CC(C(=O)O)C3)c1Cc1ccccc1-c1ccccc1` (stereo not drawn) [Example 4, 6-(4-([1,1′-biphenyl]-2-ylmethyl)-2,5-dimethylthiophene-3-carboxamido)spiro[3.3]heptane-2-carboxylic acid] the same measures were greater than 10000 nM and greater than 10000 nM.

In the case of `Cc1sc(C)c(C(=O)NC2CC3(C2)CC(C(=O)O)C3)c1Cc1ccc(Oc2ccccc2)cc1` (stereo not drawn) [Example 5, 6-(2,5-dimethyl-4-(4-phenoxybenzyl)thiophene-3-carboxamido)spiro[3.3]heptane-2-carboxylic acid], the IC50 in experiment [1] was greater than 10000 nM; in experiment [2], 5000 to 10000 nM.

On to `Cc1sc(C)c(C(=O)NC2CC3(C2)CC(C(=O)O)C3)c1CCc1ccc(-c2ccccc2)cc1` (stereo not drawn) [Example 6, 6-(4-(2-([1,1′-biphenyl]-4-yl)ethyl)-2,5-dimethylthiophene-3-carboxamido)spiro[3.3]heptane-2-carboxylic acid], for which the half-inhibitory concentration (IC50) in experiment [1] and in experiment [2] was greater than 10000 nM in each case. For the molecule `Cc1sc(C)c(C(=O)NC2CC3(C2)CC(C(=O)O)C3)c1Cc1ccc(-c2ccccc2)cc1F` (stereo not drawn) [Example 7, 6-(4-((3-fluoro-[1,1′-biphenyl]-4-yl)methyl)-2,5-dimethylthiophene-3-carboxamido)spiro[3.3]heptane-2-carboxylic acid], the 50% inhibitory concentration (IC50) is 500 to 5000 nM in experiment [1] and less than 500 nM in experiment [2]. `Cc1sc(C)c(C(=O)NC2CC3(C2)CC(C(=O)O)C3)c1Cc1ccc(-c2ccccc2)c(N)c1` (stereo not drawn) [Example 8, 6-(4-((2-amino-[1,1′-biphenyl]-4-yl)methyl)-2,5-dimethylthiophene-3-carboxamido)spiro [3.3]heptane-2-carboxylic acid]: the IC50 in experiment [1] was greater than 10000 nM; in experiment [2], 500 to 5000 nM.

`Cc1sc(C)c(C(=O)NC2CC3(C2)CC(C(=O)O)C3)c1Cc1ccc(N2CCOCC2)cc1` (stereo not drawn) [Example 9, 6-(2,5-dimethyl-4-(4-morpholinobenzyl)thiophene-3-carboxamido)spiro[3.3]heptane-2-carboxylic acid]: the half-maximal inhibitory concentration (IC50) in experiment [1] and in experiment [2] was greater than 10000 nM each time. For the molecule `Cc1sc(C)c(C(=O)c2ccc(-c3ccccc3)cc2)c1C(=O)NC1CC2(C1)CC(C(=O)O)C2` (stereo not drawn) [Example 10, 6-(4-([1,1′-biphenyl]-4-carbonyl)-2,5-dimethylthiophene-3-carboxamido)spiro[3.3]heptane-2-carboxylic acid], the concentration for half-maximal inhibition (IC50) in experiment [1] was greater than 10000 nM; in experiment [2], 500 to 5000 nM. With `Cc1sc(C)c(C(O)c2ccc(-c3ccccc3)cc2)c1C(=O)NC1CC2(C1)CC(C(=O)O)C2` (stereo not drawn) [Example 11, 6-(4-([1,1′-biphenyl]-4-yl(hydroxy)methyl)-2,5-dimethylthiophene-3-carboxamido)spiro[3.3]heptane-2-carboxylic acid], the IC50 in experiment [1] was greater than 10000 nM; in experiment [2], less than 500 nM. In the same order, the values of `COC(c1ccc(-c2ccccc2)cc1)c1c(C)sc(C)c1C(=O)NC1CC2(C1)CC(C(=O)O)C2` (stereo not drawn) [Example 12, 6-(4-([1,1′-biphenyl]-4-yl(methoxy)methyl)-2,5-dimethylthiophene-3-carboxamido)spiro[3.3]heptane-2-carboxylic acid] are greater than 10000 nM and greater than 10000 nM. In the case of `O=C(NC1CC2(C1)CC(C(=O)O)C2)c1cscc1Cc1ccc(-c2ccccc2)cc1` (stereo not drawn) [Example 13, 6-(4-([1,1′-biphenyl]-4-ylmethyl)thiophene-3-carboxamido)spiro[3.3]heptane-2-carboxylic acid], the IC50 in experiment [1] and in experiment [2] was 500 to 5000 nM each time. Regarding `Cc1scc(Cc2ccc(-c3ccccc3)cc2)c1C(=O)NC1CC2(C1)CC(C(=O)O)C2` (stereo not drawn) [Example 14, 6-(4-([1,1′-biphenyl]-4-ylmethyl)-2-methylthiophene-3-carboxamido)spiro[3.3]heptane-2-carboxylic acid], the IC50 in experiment [1] and in experiment [2] was 500 to 5000 nM each time. `O=C(NC1CC2(C1)CC(C(=O)O)C2)c1csc(Br)c1Cc1ccc(-c2ccccc2)cc1` (stereo not drawn) [Example 15, 6-(4-([1,1′-biphenyl]-4-ylmethyl)-5-bromothiophene-3-carboxamido)spiro[3.3]heptane-2-carboxylic acid]: the half-inhibitory concentration (IC50) in experiment [1] and in experiment [2] was less than 500 nM throughout.
